# From PubChem BioAssay (NCI)
#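 48-hour exposure; five concentrations; linearly interpolated endpoints. The concentration for 50% growth inhibition is given as GI50. TGI marks complete inhibition of growth.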
# Tests used:
# Test in all cases: NCI-60 cell line screen, 48 h
# ACHN renal = system: ACHN renal
# MOLT-4 leukemia = system: MOLT-4 leukemia
# SNB-19 CNS = system: SNB-19 CNS
# SK-MEL-5 melanoma = system: SK-MEL-5 melanoma
# PC-3 prostate = system: PC-3 prostate
# HCC-2998 colon = system: HCC-2998 colon
# OVCAR-4 ovarian = system: OVCAR-4 ovarian
# HL-60(TB) leukemia = system: HL-60(TB) leukemia
# HCT-116 colon = system: HCT-116 colon
# UO-31 renal = system: UO-31 renal
SMILES,GI50 (ACHN renal) [µM],TGI (ACHN renal) [µM],GI50 (MOLT-4 leukemia) [µM],TGI (MOLT-4 leukemia) [µM],GI50 (SNB-19 CNS) [µM],TGI (SNB-19 CNS) [µM],GI50 (SK-MEL-5 melanoma) [µM],TGI (SK-MEL-5 melanoma) [µM],GI50 (PC-3 prostate) [µM],TGI (PC-3 prostate) [µM],GI50 (HCC-2998 colon) [µM],TGI (HCC-2998 colon) [µM],GI50 (OVCAR-4 ovarian) [µM],TGI (OVCAR-4 ovarian) [µM],GI50 (HL-60(TB) leukemia) [µM],TGI (HL-60(TB) leukemia) [µM],GI50 (HCT-116 colon) [µM],TGI (HCT-116 colon) [µM],GI50 (UO-31 renal) [µM],TGI (UO-31 renal) [µM]
CCOC(=O)NC(=S)N(CC(=O)c1cc(OC)c(OC)c(OC)c1)c1ccc(Cl)cc1,> 100,> 100,52.3,> 100,> 100,> 100,43,> 100,72.2,> 100,33.4,> 100,60.6,> 100,65.7,> 100,72.3,> 100,48.9,> 100
COC(=N)C1(C#N)NC(c2ccsc2)C(C#N)(C#N)NC1c1ccsc1 (stereo not given),,> 100,,> 100,,> 100,,> 100,,> 100,,> 100,,> 100,,> 100,,> 100,,> 100
CCC1(c2ccc(N3C(=O)c4cccc5cc([N+](=O)[O-])cc(c45)C3=O)cc2)CCC(=O)NC1=O (stereo not given),,43.5,,> 100,,> 74.3,,> 100,,> 100,,> 88.6,,42.4,,,,21.6,,27.7
COc1cc2c(cc1O)C1Cc3ccc(OC)c(O)c3C[N+]1(C)CC2 (stereo not given),,> 100,,> 100,,> 100,,> 100,,> 100,,> 100,,> 100,,> 100,,> 100,,> 100
O=C(O)C(Cc1ccccc1)NCc1c(O)ccc2c(-c3ccccc3)cc(=O)oc12 (stereo not given),,> 100,,> 100,,> 100,,> 100,,> 100,,> 100,,> 100,,> 100,,> 100,,> 100
CC(C)(C)C(=O)Nc1c(C=O)ccc2[nH]cnc12,,> 100,,73.7,,> 100,,> 100,,> 100,,> 100,,> 100,,,,> 100,,> 100
COc1cc2c(/C=C3/C(=O)Nc4ccccc43)c(Cl)n(Cc3ccc(Cl)cc3)c2cc1C,,1.27,,0.627,,15.8,,1.62,,16.5,,0.432,,18.6,,2.33,,0.824,,17.6
N#Cc1c(NC(=S)Nc2ccc(Cl)cc2)sc2c1CCN(N1CCc3c(sc(NC(=S)Nc4ccc(Cl)cc4)c3C#N)C1)C2,,> 100,,> 100,,> 100,,22.3,,> 100,,> 100,,> 100,,> 100,,> 100,,59.9
CCOC(=O)c1c(-c2ccc(OC)cc2)ccn1C,,> 10,,> 10,,> 10,,> 10,,> 9.68,,> 10,,> 10,,,,> 10,,> 10
CC(O)c1nc(C#N)c(N)o1 (stereo not given),,> 100,,> 100,,> 100,,> 100,,> 100,,,,,,> 100,,> 100,,> 100
COc1ccccc1NC(=O)C(=O)C(C(=O)c1ccccc1F)C1OC(=O)c2ccccc21 (stereo not given),,> 100,,> 100,,64,,> 100,,,,28.8,,> 100,,56.5,,44.3,,98.7
Cc1nc2c(Br)cc(Br)cc2c(=O)n1-c1ccccc1NC1OC(CO)C(O)C(O)C1O (stereo not given),,> 100,,> 100,,> 100,,> 100,,> 100,,> 100,,> 100,,> 100,,> 100,,> 100
Cc1nc(NC(C)(CO)CO)nc(N/N=C/c2ccc(Cl)cc2)c1C(=O)Nc1ccc(Cl)cc1,,> 100,,> 100,,> 100,,,,> 100,,> 100,,> 100,,> 100,,> 100,,> 100
CCOP(=O)(/C=C/n1cc(C)c(=O)[nH]c1=O)OCC,,> 100,,> 100,,> 100,,> 100,,> 100,,,,> 100,,> 100,,> 100,,
Cn1/c(=N\N=C2\C=C3CCCCC3(C)CC2)sc2ccccc21 (stereo not given),,> 100,,,,> 100,,> 100,,> 100,,> 100,,> 100,,> 100,,> 100,,> 100
COC(=O)C1=C(CCCCO[Si](C)(C)C(C)(C)C)NC(=O)N2[C@H](CCOCc3ccccc3)CC[C@@H]12,,> 100,,> 100,,> 100,,28.3,,> 100,,> 100,,> 100,,,,> 100,,> 100
O=C1c2ccccc2-c2nc3ccncc3n21,,> 100,,> 100,,> 100,,,,> 100,,> 100,,> 100,,> 100,,> 100,,> 100
Cc1cn(CCCCCCOC(=O)NC(CCCNC(N)=O)C(=O)O)c(=O)[nH]c1=O (stereo not given),,> 100,,> 100,,> 100,,,,> 100,,> 100,,> 100,,> 100,,> 100,,> 100
CC(Nc1ccc(Cl)cc1)c1ccncc1 (stereo not given),,> 100,,> 100,,> 100,,> 100,,> 100,,> 100,,> 100,,,,> 100,,> 100
COc1ccc(N2C(=O)C3c4[nH]c5c(C)cccc5c4C4CCC(C(C)C)CC4C3C2=O)cc1 (stereo not given),,47.2,,11.2,,> 100,,> 100,,25.2,,28.8,,42.3,,,,,,31.4
NC(=O)CCC(N=c1c2ccccc2n(O)c2ccccc12)C(=O)O (stereo not given),,> 100,,> 100,,> 100,,> 100,,,,> 100,,> 100,,> 100,,> 100,,> 100
O=c1c2cc(Br)cc(Br)c2[nH]c(=S)n1-c1ccc(N=Nc2ccc(O)c3cccnc23)cc1,,> 100,,> 100,,61.2,,29,,> 100,,,,> 100,,> 100,,> 100,,> 100

SMILES,GI50 (ACHN renal) [µM],TGI (ACHN renal) [µM],GI50 (MOLT-4 leukemia) [µM],TGI (MOLT-4 leukemia) [µM],GI50 (SNB-19 CNS) [µM],TGI (SNB-19 CNS) [µM],GI50 (SK-MEL-5 melanoma) [µM],TGI (SK-MEL-5 melanoma) [µM],GI50 (PC-3 prostate) [µM],TGI (PC-3 prostate) [µM],GI50 (HCC-2998 colon) [µM],TGI (HCC-2998 colon) [µM],GI50 (OVCAR-4 ovarian) [µM],TGI (OVCAR-4 ovarian) [µM],GI50 (HL-60(TB) leukemia) [µM],TGI (HL-60(TB) leukemia) [µM],GI50 (HCT-116 colon) [µM],TGI (HCT-116 colon) [µM],GI50 (UO-31 renal) [µM],TGI (UO-31 renal) [µM]
CCc1nc(N)c2nc(-c3cccs3)oc2n1,,> 100,,> 100,,> 100,,> 100,,> 100,,> 100,,,,> 100,,> 100,,> 100
O=P1(N(CCCl)CCCl)Oc2ccc(Cl)cc2C(C(Cl)(Cl)Cl)c2cc(Cl)ccc2O1 (stereo not given),,> 100,,> 100,,,,24,,> 100,,34.3,,> 100,,> 100,,15.9,,> 100
C=C(Br)CN=CN(C)C,,> 100,,> 100,,> 100,,> 100,,> 100,,,,> 100,,> 100,,> 100,,> 100
CC1OC(OC2C(O[C@H]3CC[C@@]4(C)C(=CC[C@H]5[C@@H]6C[C@@H]7O[C@]8(CC[C@@H](C)CO8)[C@@H](C)[C@@H]7[C@@]6(C)CC[C@@H]54)C3)OC(CO)C(O)C2OC2OC(CO)C(O)C(O)C2O)C(O)C(O)C1O (stereo not given in full),,3.29,,> 23.3,,3.46,,4.36,,3.55,,3.34,,3.31,,,,,,3.5
CC1=C(CO)C(=O)OC(C(C)C2CCC3C4CC5OC56C(O)C(N5CC5)=CC(=O)C6(C)C4CCC23C)C1 (stereo not given),,19.5,,8.52,,9.56,,25.4,,,,9.73,,20.6,,6.08,,12.2,,25.7
C/C(=N\Nc1nc2ccccc2s1)c1ccncn1,,11.8,,,,> 28.4,,7.08,,> 43,,> 41.9,,42.4,,,,16.3,,10.2
COC(=O)c1sc(=O)sc1SCc1cccc(CSc2sc(=O)sc2C(=O)OC)c1,,> 100,,> 100,,61.6,,> 100,,> 100,,> 100,,37.7,,,,> 100,,> 100
N[C@@H](CCC(=O)NC(Cc1ccccc1)C(=O)NCP(=O)(O)O)C(=O)O (stereo not given in full),,> 100,,> 100,,> 100,,> 100,,> 100,,> 100,,,,> 100,,> 100,,> 100
COP(=O)(OC)OCN(C)CC/C=C(\C)CC/C=C(\C)CCC=C(C)C,,64.2,,28.9,,25.6,,25.3,,21.2,,23.8,,> 100,,,,25.9,,28.3
COc1cc2c[n+]3c4c(c2c(OC)c1OC)CCCC4CC3 (stereo not given),,> 100,,> 100,,> 100,,46.9,,> 100,,> 100,,> 100,,,,> 100,,> 100
Nc1c(C(=O)c2ccc(Cl)c(Cl)c2)[nH]c(NCc2ccccc2)c1C(=S)Nc1ccccc1,,28.1,,> 100,,37.7,,,,30.5,,3.48,,15.8,,38.4,,12.6,,21.6
CCC1(O)CC(CCN(Cc2ccccc2)C(=O)OCc2ccccc2)C(OCc2ccccc2)C1O (stereo not given),,32.2,,7.56,,31.6,,30.9,,23.2,,28.9,,22,,,,48.8,,33.7
O=C(Nc1ccccc1)N1CCN(C(=O)Nc2ccccc2)C1=S,,> 100,,> 100,,,,> 100,,,,> 100,,> 100,,> 100,,> 100,,60.7
COC1/C=C/C(C)C(O)CC(O)/C=C/C(C)C(C(C)C(OC)C(C)CCC(=O)C(C)C(C/C=C/N(C)C=O)OC)OC(=O)/C=C/C=C(\C)CC(OC)CC2=CC(=O)O[C@@H](C(C)C(OC)C1)[C@H]2O (stereo not given in full),,0.13,,28.2,,0.155,,< 0.005,,0.131,,,,1.54,,0.252,,0.00952,,0.0648
ClC1=NN=C(c2c[nH]c3ccccc23)CC1NCc1ccccc1 (stereo not given),,> 100,,> 100,,> 100,,> 100,,> 100,,,,,,> 100,,> 100,,> 100
Oc1ccc(C(O)C2CCCCN2)cc1O (stereo not given),,> 100,,,,> 100,,> 100,,> 100,,,,> 100,,,,> 100,,> 100
COc1ccc(CCNC(=O)Cc2ccccc2CO)cc1OC,,> 100,,> 100,,,,> 100,,> 100,,> 100,,> 100,,> 100,,> 100,,> 100
O=C(CNc1ccccc1C(=O)O)Nn1cnc2ccc(S(=O)(=O)Nc3ccccc3C(=O)O)cc2c1=O,,> 100,,> 100,,> 100,,,,> 100,,> 100,,> 100,,> 100,,> 100,,> 100
CC1=C(C)C(=O)C(C2=CC(=O)c3ccccc3C2=O)=C(C2=CC(=O)c3ccccc3C2=O)C1=O,,14.9,,> 36.2,,> 36.5,,,,21.7,,19.8,,42.8,,12.3,,> 100,,25.4
O=C(O)CSC(CC(=O)c1ccc(Cl)cc1)c1ccc(Cl)cc1 (stereo not given),,> 100,,27,,> 100,,> 100,,> 100,,,,> 100,,7.45,,59.7,,> 100
CC(=O)CC1(CBr)Nc2ccc([N+](=O)[O-])cc2NC1=O (stereo not given),,> 100,,> 100,,> 100,,> 100,,> 100,,> 100,,> 100,,,,> 100,,> 100
